The text below walks through data of ChEMBL document CHEMBL2380208, “Novel quinoline derivatives as inhibitors of bacterial DNA gyrase and topoisomerase IV” (Bioorg Med Chem Lett, 2013).

Converted amounts (≈) assume the structure as drawn. Some results are limits rather than exact numbers.

By MIC is commonly meant the lowest concentration that inhibits growth of the organism. As a reminder, the IC50 is the concentration needed to halve the response being measured. A lower IC50 goes with inhibition by little substance.

Test [1] deals with Staphylococcus aureus. Kind of test: Antibacterial activity against Staphylococcus aureus 1146. The test is classed as functional.
The test system of test [2] is Staphylococcus aureus. Kind of test: Antibacterial activity against fluoroquinolone-resistant Staphylococcus aureus 1095. The class given is functional.
The target of another test is DNA gyrase (Staphylococcus aureus, UniProt P0A0K8+P20831). Kind of test: Inhibition of Staphylococcus aureus DNA gyrase. The test is classed as protein-complex assay.
DNA gyrase, sequence (P0A0K8 whole entry): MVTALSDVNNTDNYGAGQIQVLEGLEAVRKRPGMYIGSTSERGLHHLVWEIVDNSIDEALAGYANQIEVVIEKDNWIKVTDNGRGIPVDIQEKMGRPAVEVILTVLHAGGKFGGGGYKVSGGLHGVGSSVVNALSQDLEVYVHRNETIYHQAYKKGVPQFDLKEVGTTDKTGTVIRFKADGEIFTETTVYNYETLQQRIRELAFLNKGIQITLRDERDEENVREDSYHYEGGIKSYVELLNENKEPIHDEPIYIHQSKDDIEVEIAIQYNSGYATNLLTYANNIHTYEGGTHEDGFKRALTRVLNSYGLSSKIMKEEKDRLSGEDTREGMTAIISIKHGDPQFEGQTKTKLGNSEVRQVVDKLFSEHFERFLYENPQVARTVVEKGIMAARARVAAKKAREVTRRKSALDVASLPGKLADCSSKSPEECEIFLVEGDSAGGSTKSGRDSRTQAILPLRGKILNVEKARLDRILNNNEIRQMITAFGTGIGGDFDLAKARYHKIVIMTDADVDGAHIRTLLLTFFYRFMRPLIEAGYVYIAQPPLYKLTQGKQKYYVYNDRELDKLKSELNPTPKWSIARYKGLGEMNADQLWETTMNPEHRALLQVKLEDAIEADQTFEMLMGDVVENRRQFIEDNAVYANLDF
DNA gyrase, sequence (P20831 whole entry): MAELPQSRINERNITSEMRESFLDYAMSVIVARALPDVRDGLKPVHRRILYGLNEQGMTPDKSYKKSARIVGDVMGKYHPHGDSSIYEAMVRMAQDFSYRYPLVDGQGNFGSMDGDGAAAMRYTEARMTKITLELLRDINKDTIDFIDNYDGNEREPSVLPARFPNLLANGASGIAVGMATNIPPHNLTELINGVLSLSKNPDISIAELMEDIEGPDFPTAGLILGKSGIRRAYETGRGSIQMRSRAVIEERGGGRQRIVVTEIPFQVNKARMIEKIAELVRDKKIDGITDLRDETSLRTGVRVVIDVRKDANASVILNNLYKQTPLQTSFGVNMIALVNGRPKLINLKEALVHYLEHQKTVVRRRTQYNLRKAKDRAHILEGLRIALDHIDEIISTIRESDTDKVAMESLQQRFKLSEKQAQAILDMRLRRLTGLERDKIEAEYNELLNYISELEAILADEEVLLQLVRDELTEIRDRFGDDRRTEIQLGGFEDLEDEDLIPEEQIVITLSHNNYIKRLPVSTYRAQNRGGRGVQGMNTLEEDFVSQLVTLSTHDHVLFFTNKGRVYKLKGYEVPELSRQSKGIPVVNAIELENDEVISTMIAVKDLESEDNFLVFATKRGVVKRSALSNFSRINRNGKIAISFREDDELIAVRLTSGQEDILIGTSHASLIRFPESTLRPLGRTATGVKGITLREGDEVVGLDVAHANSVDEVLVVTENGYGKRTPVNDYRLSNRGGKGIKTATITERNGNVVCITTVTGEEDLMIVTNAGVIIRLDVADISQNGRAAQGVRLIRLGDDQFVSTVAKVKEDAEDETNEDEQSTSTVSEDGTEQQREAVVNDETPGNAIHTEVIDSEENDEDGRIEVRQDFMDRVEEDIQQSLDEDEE
A short description of test [3]: Inhibition of Staphylococcus aureus DNA topoisomerase 4.

For the compound `COc1ccc2nccc([C@@H](O)CC[C@@H]3CCN(C4CC(c5ccncn5)C4)C[C@@H]3C(=O)O)c2c1` (stereo partly specified), the MIC with Staphylococcus aureus [1] is 64 µg/mL (≈ 134 µM); in the test on Staphylococcus aureus [2], more than 64 µg/mL. Further, the IC50 at DNA gyrase came to 19 µM; in test [3], 120 µM.

For `COc1ccc2nccc([C@@H](O)CC[C@@H]3CCN(C4CC(c5ccno5)C4)C[C@@H]3C(=O)O)c2c1` (stereo partly specified), the values for the MIC in the test with Staphylococcus aureus [1] and in the test with Staphylococcus aureus [2] were 2 µg/mL (≈ 4.3 µM) and 8 µg/mL (≈ 17.2 µM), respectively. Besides, the IC50 on DNA gyrase came to 3.13 µM; in test [3], 60 µM.

In the case of `COc1ccc2nccc([C@@H](O)CC[C@@H]3CCN(C4CC(c5ccnc(C)n5)C4)C[C@@H]3C(=O)O)c2c1` (stereo partly specified), the MIC in the test with Staphylococcus aureus [1] and with Staphylococcus aureus [2] was more than 64 µg/mL each time. Moreover, the IC50 against DNA gyrase was 50 µM; in test [3], more than 120 µM.

Consider `COc1ccc2nccc([C@@H](O)CC[C@@H]3CCN(C4CC(c5ccn(C)n5)C4)C[C@@H]3C(=O)O)c2c1` (stereo partly specified), for which the MIC against Staphylococcus aureus [1] and against Staphylococcus aureus [2] was more than 64 µg/mL each time. Besides, the IC50 at DNA gyrase is 19 µM; in test [3], more than 120 µM.

As to `COc1ccc2nccc([C@@H](O)CC[C@@H]3CCN(C4CC(c5ccn[nH]5)C4)C[C@@H]3C(=O)O)c2c1` (stereo partly specified), the MIC in the test with Staphylococcus aureus [1] and against Staphylococcus aureus [2] was more than 64 µg/mL in each case. For the same compound, the IC50 against DNA gyrase was more than 25 µM; in test [3], more than 120 µM.

In the test with Staphylococcus aureus [2], `COc1ccc2nccc([C@@H](O)CC[C@@H]3CCN(C4CC(c5cc(C(F)(F)F)ccc5F)C4)C[C@@H]3C(=O)O)c2c1` (stereo partly specified) had an MIC of 4 µg/mL (≈ 7.14 µM). Also, the concentration for half-maximal inhibition (IC50) at DNA gyrase is 25 µM; in test [3], more than 100 µM.

Take `COc1ccc2nccc([C@@H](O)CC[C@@H]3CCN(C4CC(c5ccc(F)c(C#N)c5)C4)C[C@@H]3C(=O)O)c2c1` (stereo partly specified): the MIC against Staphylococcus aureus [2] is more than 64 µg/mL. Besides, the results for the IC50 (on DNA gyrase; in test [3]) were 3.13 µM and more than 200 µM, respectively.

In the case of `COc1ccc2nccc([C@@H](O)CC[C@@H]3CCN(C4CC(c5cccc(C#N)c5)C4)C[C@@H]3C(=O)O)c2c1` (stereo partly specified), in the test on Staphylococcus aureus [2], the MIC turned out to be 16 µg/mL (≈ 32 µM). Besides, the IC50 is 9.4 µM against DNA gyrase and more than 200 µM in test [3].

In the case of `COc1ccc2nccc([C@@H](O)CC[C@@H]3CCN(C4CC(c5ccccc5OC)C4)C[C@@H]3C(=O)O)c2c1` (stereo partly specified), the figures for the MIC against Staphylococcus aureus [1] and in the test with Staphylococcus aureus [2] were 0.5 µg/mL (≈ 0.991 µM) and 1 µg/mL (≈ 1.98 µM), respectively. The IC50 on DNA gyrase was 6.25 µM; in test [3], more than 240 µM.

On to `COc1ccc2nccc([C@@H](O)CC[C@@H]3CCN(C4CC(c5c(F)cccc5OC)C4)C[C@@H]3C(=O)O)c2c1` (stereo partly specified), for which the values for the MIC with Staphylococcus aureus [1] and with Staphylococcus aureus [2] were 0.25 µg/mL (≈ 0.478 µM) and 2 µg/mL (≈ 3.83 µM), respectively. Moreover, the IC50 against DNA gyrase stood at 12.5 µM; in test [3], 100 µM.

With `COc1ccc2nccc([C@@H](O)CC[C@@H]3CCN(C4CC(c5c(F)cccc5C(F)(F)F)C4)C[C@@H]3C(=O)O)c2c1` (stereo partly specified), the MIC was 0.5 µg/mL (≈ 0.892 µM) in the test on Staphylococcus aureus [1] and 2 µg/mL (≈ 3.57 µM) in the test on Staphylococcus aureus [2]. Further, the IC50 at DNA gyrase is 19 µM; in test [3] it was more than 100 µM.

For `COc1ccc2nccc([C@@H](O)CC[C@@H]3CCN(C4CC(c5cc(F)ccc5OC)C4)C[C@@H]3C(=O)O)c2c1` (stereo partly specified), the MIC with Staphylococcus aureus [1] is 0.5 µg/mL (≈ 0.957 µM); with Staphylococcus aureus [2], 4 µg/mL (≈ 7.65 µM). Besides, the IC50 was 12.5 µM against DNA gyrase and 37 µM in test [3].

For `COc1ccc2nccc([C@@H](O)CC[C@@H]3CCN(C4CC(c5cc(Br)ccc5F)C4)C[C@@H]3C(=O)O)c2c1` (stereo partly specified), the figures for the minimal inhibitory concentration (MIC) in the test with Staphylococcus aureus [1] and in the test with Staphylococcus aureus [2] were not above 0.0625 µg/mL and 0.25 µg/mL (≈ 0.437 µM), respectively. Besides, the IC50 at DNA gyrase was determined as 3.13 µM; in test [3] it was 50 µM.

In the case of `COc1ccc2nccc([C@@H](O)CC[C@@H]3CCN(C4CC(c5ccccc5C(F)(F)F)C4)C[C@@H]3C(=O)O)c2c1` (stereo partly specified), the MIC in the test on Staphylococcus aureus [1] was 0.125 µg/mL (≈ 0.23 µM); against Staphylococcus aureus [2], 0.25 µg/mL (≈ 0.461 µM). In addition, the IC50 against DNA gyrase stood at 1.56 µM; in test [3], 60 µM.

For `COc1ccc2nccc([C@@H](O)CC[C@@H]3CCN(C4CC(c5cc(F)ccc5C)C4)C[C@@H]3C(=O)O)c2c1` (stereo partly specified), the MIC was 0.125 µg/mL (≈ 0.247 µM) against Staphylococcus aureus [1] and 0.5 µg/mL (≈ 0.987 µM) in the test on Staphylococcus aureus [2]. Also, the IC50 worked out at 2.3 µM against DNA gyrase and 45 µM in test [3].

Regarding `COc1ccc2nccc([C@@H](O)CC[C@@H]3CCN(C4CC(c5ncc(C)o5)C4)C[C@@H]3C(=O)O)c2c1` (stereo partly specified), the values for the MIC with Staphylococcus aureus [1] and against Staphylococcus aureus [2] were 2 µg/mL (≈ 4.17 µM) and 8 µg/mL (≈ 16.7 µM), respectively. Besides, the IC50 on DNA gyrase was 6.25 µM; in test [3] it was more than 100 µM.
